Values of other authors in patent US20200129524A1, “PERSONALIZED CONTRACEPTIVE FORMULATIONS” (Agile Therapeutics, Inc., priority 2017, published 2020).

Molecular target: T1, SHBG (Homo sapiens, UniProt P04278)
T1 sequence (P04278 30-402): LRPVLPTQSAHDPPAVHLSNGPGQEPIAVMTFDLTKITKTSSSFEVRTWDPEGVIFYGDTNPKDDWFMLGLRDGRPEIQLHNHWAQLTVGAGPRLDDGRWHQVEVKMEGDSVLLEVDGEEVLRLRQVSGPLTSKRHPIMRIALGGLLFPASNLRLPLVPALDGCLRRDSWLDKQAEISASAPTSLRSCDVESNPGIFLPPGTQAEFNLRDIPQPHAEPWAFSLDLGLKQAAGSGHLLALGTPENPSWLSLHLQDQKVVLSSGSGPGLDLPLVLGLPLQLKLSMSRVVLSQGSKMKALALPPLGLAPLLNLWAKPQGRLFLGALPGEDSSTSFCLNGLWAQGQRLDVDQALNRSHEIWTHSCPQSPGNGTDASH
Conditions: testosterone being 100; cited from earlier work

C[C@]12CC[C@H]3[C@@H](CCC4=CC(=O)CC[C@@]43C)[C@@H]1CC[C@@H]2O [testosterone]
relative binding affinity to SHBG: 100%
